Reference: patent US9757426B2, “Peptide additives for enhancing acceptance and ingestion of edibles by rodents and uses thereof” (priority 2013, dated 2017)
No end group written: not given here.

Legend:
Type in all cases: in vivo
mice [1] = assay: Concentration/response functions, preference for warfarin-containing food; conditions: both foods contain 0.025% warfarin, +/- SEM
Text: Concentration/response functions were studies for uroguanylin. […] A preference ratio of 0.5 indicates no preference.
Concentration/response functions were also studied for guanylin. […] A preference ratio of 0.5 indicates no preference.

C57BL/6J mice = assay: Preference testing after uroguanylin exposure (B6 mice); conditions: mean ± s.e.m.
Text: Food preference testing—Food preference assays were modified from those used previously for testing the social transmission of food preference in rats and mice (Galef et al. 1983; Posadas-Andrews and Roper 1983; Valsecchi and Galef 1989; Crawley 2007; Ryan et al. 2008; Munger et al. 2010). In all experiments, subject mice were pair-housed for four days in standard cages with the food container placed on the cage floor. Mice were fed a crushed rodent diet (2018SX, Harlan) to habituate them to powdered food. The amount of food was restricted to 2 g/mouse/day to facilitate feeding during the food preference tests. […] All data were expressed as mean ±S.E.M. Differences were accepted as significant if p<0.05 (see below for statistical tests).
B6 mice were randomly assigned into one of three groups (n=8 each). On the test day, each mouse was moved to individual cages and presented with a petri dish containing a drop of saline (150 μl) with added flavor powder (2% cocoa or 1% cinnamon) with or without uroguanylin (0, 50 nM or 50 μM). After 1 hr exposure, mice were moved to clean cages. After 3 hrs, mice were presented with two food trays (3.5 cm petri dishes mounted to a weighted plastic stage), one of which contained cocoa-odored food (3.5 g) and the other cinnamon-odored food (3.5 g). Subject mice were allowed to feed for 1 hr, at which point the food trays were removed and weighed to calculate the amount of each food consumed. […] Significance between stimulus conditions was determined by one-way ANOVA.
The chemostimulus CS2, when paired with a food odor, is sufficient to increase the attractiveness of foods and to promote the acquisition of food preferences in mice (Bean et al. 1988; Munger et al. 2010). Whether uroguanylin could serve a similar role was tested. Individual observer mice were allowed to interact with a petri dish containing an odor (2% cocoa or 1% cinnamon) with or without uroguanylin (50 nM or 50 μM) in saline. Each mouse was subsequently presented with a choice of two odored chows (cocoa vs. cinnamon).

mice [2] = assay: Maintenance over time of uroguanylin-dependent preferences (warfarin-containing foods, retests); conditions: 50 nM uroguanylin
Method: Mice form preferences to food and feeding sites when food odors are paired with the social cues uroguanylin. It was determined whether mice will maintain this preference and return to the learned food odor even after the food has been tainted with the commonly used rodenticide warfarin. […] A preference ratio of 0.5 indicates no preference. […] These same mice were retested one and four days after the initial day of testing. […] By contrast, there was no effect of the test day on the preference ratio.

[3] = 1 nM peptide + food odor in saline for 1 hr
[4] = 50 nM peptide + food odor in saline for 1 hr

Substance | Preference ratio (PR = food with demonstrated odor (g) consumed/total food (g) consumed) (mice [1]; [3]) | Preference ratio (PR = food with demonstrated odor (g) consumed/total food (g) consumed) (mice [1]; [4]) | Amount of food consumed, Total food (C57BL/6J mice; Odor + UG (50 nM)) [g] | Amount of food consumed, w/demonstrated odor (C57BL/6J mice; Odor + UG (50 nM)) [g] | Amount of food consumed, w/novel odor (C57BL/6J mice; Odor + UG (50 nM)) [g] | Amount of food consumed, Total food (C57BL/6J mice; Odor + UG (50 μM)) [g] | Amount of food consumed, w/demonstrated odor (C57BL/6J mice; Odor + UG (50 μM)) [g] | Amount of food consumed, w/novel odor (C57BL/6J mice; Odor + UG (50 μM)) [g] | Preference ratio (PR) (mice [2]; initial day of testing, both foods contain 0.025% warfarin) | Preference ratio (PR) (mice [2]; retest Day 2, foods contain 0.025% warfarin) | Preference ratio (PR) (mice [2]; retest Day 5, foods contain 0.025% warfarin)
guanylin (PGTCEICAYAACTGC; ends and bridges not checked; cysteine pairing not given here; UniProt Q02747 101-115, looked up) [guanylin family peptide, naturally-occurring peptide hormone produced in the intestines] | 0.75 +/−0.04 | 0.72 +/−0.04 | – | – | – | – | – | – | – | – | –
uroguanylin (NDDCELCVNVACTGCL; ends and bridges not checked; cysteine pairing not given here; UniProt Q16661 97-112, looked up) [guanylin family peptide, naturally-occurring peptide hormone produced in the intestines; GC-D agonist] | 0.65 +/−0.05 | 0.76 +/−0.04 | 1.42 ± 0.19 | 1.08 ± 0.14 | 0.34 ± 0.08 | 1.50 ± 0.26 | 1.15 ± 0.14 | 0.35 ± 0.12 | 0.76+/−0.04 | 0.72 +/−0.06 | 0.74 +/−0.08
